Test results reported in patent publication US11352395B2, “Anticancer peptides” (IDP DISCOVERY PHARMA, S.L., priority 2017, dated 2022).
Like-named read-outs stand apart in the source and are kept apart here. *1 amine or outer side, *2 acyl side, *3 side chain or, on linkers, in order; H or OH if unused. Where a SMILES comes first, the peptide text is derived from it. Bridges are numbered along the chain shown (N, C = ends). Where no end group is shown, it is not given here. [ ]: non-standard residue; d: D form. ξ: configuration not given here. ξαMeNle(6-ylidene) = CC(CCCC=[*:3])(N[*:1])C(=O)[*:2]; X1 = CC(CCCCCCC=[*:3])(N[*:1])C(=O)[*:2]

Legend:
[1] = tested on: RG1, epithelial (glioblastoma, GMB)
Method: Alamar Blue: 10 μl Alamar Blue solution was added to each well and the plates were incubated for 4 in the incubator. Fluorescence ratio at 535/590 (excitation/emission) was measured in Cytofluor (Millipore) fluorimeter. Blank control was determined by lysis of untreated cells with con 2% of Triton X100, right before adding Alamar Blue solution.

[2] = tested on: NCI-H524, lung (small cell lung cancer, SCLC)
Text: Cell Lines: NCI-H524, lung (small cell lung cancer, SCLC), ATCC-CRL-5831 RG1, epithelial (glioblastoma, GMB), from surgical specimens from patients GMB-27, epithelial (glioblastoma, GMB), from surgical specimens from patients 12O15, epithelial (glioblastoma, GMB), from surgical specimens from patients 12O53, epithelial (glioblastoma, GMB), from surgical specimens from patients 12O89, epithelial (glioblastoma, GMB), from surgical specimens from patients RG6, epithelial (glioblastoma, GMB), from surgical specimens from patients RG4, epithelial (glioblastoma, GMB), from surgical specimens from patients RG5, epithelial (glioblastoma, GMB), from surgical specimens from patients Cell Culture […]
During the amplification step and the assays adherent cells were rinsed with DPBS (Dulbecco's Phosphate Buffered Saline, Sigma D1283) three times and afterward treated for 5 minutes with trypsin ([0.5 g/ml]/EDTA [0.2 g/ml]) (Gibco-BRL, 15400054) in solution of DPBS at 37° C., and, once detached, transferred in the culturing medium. […] Cells were counted in a Neubauer chamber after labelling with Tripan-Blue. […]
Cells were incubated during 72-96 h in incubator under CO2 atmosphere at 37° C. Cell viability was measured by means of Alamar Blue® (Biosource DAL1100) and CYTELL™, after treatment with Propidium iodide and Hoechst (GE Healthcare), following manufacturer instructions. […]

[3] = tested on: 12O53, epithelial (glioblastoma, GMB); format: cell-based, human
Text: [drawing 12] a L birradical corresponding to -(CH2)3-CH═CH-(CH2)3- (for the case of NS02) or -(CH2)6-CH═CH-(CH2)3- (for the cases NS10, NS16 and Na05) links both Xs radicals in each sequence, and CPP2 corresponds to penetratine peptide. Cell Lines: NCI-H524, lung (small cell lung cancer, SCLC), ATCC-CRL-5831 RG1, epithelial (glioblastoma, GMB), from surgical specimens from patients GMB-27, epithelial (glioblastoma, GMB), from surgical specimens from patients 12O15, epithelial (glioblastoma, GMB), from surgical specimens from patients 12O53, epithelial (glioblastoma, GMB), from surgical specimens from patients 12O89, epithelial (glioblastoma, GMB), from surgical specimens from patients RG6, epithelial (glioblastoma, GMB), from surgical specimens from patients RG4, epithelial (glioblastoma, GMB), from surgical specimens from patients RG5, epithelial (glioblastoma, GMB), from surgical specimens from patients Cell Culture During the amplification step and the assays adherent cells were rinsed with DPBS (Dulbecco's Phosphate Buffered Saline, Sigma D1283) three times and afterward treated for 5 minutes with trypsin ([0.5 g/ml]/EDTA [0.2 g/ml]) (Gibco-BRL, 15400054) in solution of DPBS at 37° C., and, once detached, transferred in the culturing medium. No-adherent cells were dissociated with Accumax, centrifuged and transferred in the culturing medium. Cells were counted in a Neubauer chamber after labelling with Tripan-Blue. […] NCI-H524 were seeded at a density of 2500 cells/well in 96 well plates; […]6, 12015, 12089 and GBM-27 were dissociated with Accumax and plate on p96 wells covered with Matrigel. After 24 h, the compounds to be tested were added to calculate the dose/response curve at the starting concentration of 100 μM with serial dilutions (1:1). Controls are the untreated cells. Each experiment was performed in triplicate. Cells were incubated during 72-96 h in incubator under CO2 atmosphere at 37° C. Cell viability was measured by means of Alamar Blue® (Biosource DAL1100) and […], after treatment with Propidium iodide and Hoechst (GE Healthcare), following manufacturer instructions. Alamar Blue: 10 μl Alamar Blue solution was added to each well and the plates were incubated for […] in the incubator. Fluorescence ratio at 535/590 (excitation/emission) was measured in Cytofluor (Millipore) fluorimeter. Blank control was determined by lysis of untreated cells with con 2% of Triton X100, right before adding Alamar Blue solution. […] of propidium iodide and/or Hoechst solution was added to each well and the plates were incubated for 10 minutes protected by light. Control samples were represented by untreated cells and cell treated with 100% DMSO. Fluorescent stained cells which corresponds to death cells were detected by Cytell Imaging System and their amount calculated. % Viability=Number of non-blue cells×100/Number of total cells Statistics Data analysis was performed calculating the percentage of cell viability normalized vs. the values of negative control, which was considered equal to 100%. The dose/response curve was fitted through the sigmoidal equation dose-response (variable slope) and the EC50 values were calculated as follow: Y=Bottom+(Top-Bottom)/(1+10^{[(Log EC50-X)*HillSlope]}, where: X is compound concentration (log scale) and Y is the response

[4] = tested on: 12O89, epithelial (glioblastoma, GMB); format: cell-based, human
Text: (§1) [drawing 12] a L birradical corresponding to —(CH2)3—CH═CH—(CH2)3— (for the case of NS02) or —(CH2)6—CH═CH—(CH2)3— (for the cases NS10, NS16 and Na05) links both Xs radicals in each sequence, and CPP2 corresponds to penetratine peptide. Cell Lines: NCI-H524, lung (small cell lung cancer, SCLC), ATCC-CRL-5831 RG1, epithelial (glioblastoma, GMB), from surgical specimens from patients GMB-27, epithelial (glioblastoma, GMB), from surgical specimens from patients 12O15, epithelial (glioblastoma, GMB), from surgical specimens from patients 12O53, epithelial (glioblastoma, GMB), from surgical specimens from patients 12O89, epithelial (glioblastoma, GMB), from surgical specimens from patients RG6, epithelial (glioblastoma, GMB), from surgical specimens from patients RG4, epithelial (glioblastoma, GMB), from surgical specimens from patients RG5, epithelial (glioblastoma, GMB), from surgical specimens from patients Cell Culture
(§2) Cell lines NCI-H524 were cultured in incubator at 37° C. in RPMI-1640 (Sigma R8758) medium with 10% of fetal bovine serum inactivated (FBS) and 2 mM glutamine (Sigma G7513). Cell line RG1, RG4, RG5, RG6, 12015, 12089 and GBM-27 were cultured in incubator under CO2 (6%) at 37° C. in complete medium (Neurobasal+B27+Glutamax+Growth factors).
(§3) During the amplification step and the assays adherent cells were rinsed with DPBS (Dulbecco's Phosphate Buffered Saline, Sigma D1283) three times and afterward treated for 5 minutes with trypsin ([0.5 g/ml]/EDTA [0.2 g/ml]) (Gibco-BRL, 15400054) in solution of DPBS at 37° C., and, once detached, transferred in the culturing medium. No-adherent cells were dissociated with Accumax, centrifuged and transferred in the culturing medium. Cells were counted in a Neubauer chamber after labelling with Tripan-Blue.
(§4) NCI-H524 were seeded at a density of 2500 cells/well in 96 well plates; RG1, RG4, RG5, RG6, 12015, 12089 and GBM-27 were dissociated with Accumax and plate on p96 wells covered with Matrigel. After 24 h, the compounds to be tested were added to calculate the dose/response curve at the starting concentration of 100 μM with serial dilutions (1:1). Controls are the untreated cells. Each experiment was performed in triplicate.
(§5) Cells were incubated during 72-96 h in incubator under CO2 atmosphere at 37° C. Cell viability was measured by means of Alamar Blue® (Biosource DAL1100) and CYTELL™, after treatment with Propidium iodide and Hoechst (GE Healthcare), following manufacturer instructions.
(§6) Alamar Blue: 10 μl Alamar Blue solution was added to each well and the plates were incubated for […] in the incubator. Fluorescence ratio at 535/590 (excitation/emission) was measured in Cytofluor (Millipore) fluorimeter. Blank control was determined by lysis of untreated cells with con 2% of Triton X100, right before adding Alamar Blue solution.
(§7) CYTELL™: 10 μl of propidium iodide and/or Hoechst solution was added to each well and the plates were incubated for 10 minutes protected by light. Control samples were represented by untreated cells and cell treated with 100% DMSO. Fluorescent stained cells which corresponds to death cells were detected by Cytell Imaging System and their amount calculated. % Viability=Number of non-blue cells×100/Number of total cells Statistics
(§8) Data analysis was performed calculating the percentage of cell viability normalized vs. the values of negative control, which was considered equal to 100%. The dose/response curve was fitted through the sigmoidal equation dose-response (variable slope) and the EC50 values were calculated as follow: Y=Bottom+(Top−Bottom)/(1+10^{[(Log EC50−X)*HillSlope]}, where: X is compound concentration (log scale) and Y is the response

[5] = tested on: RG4, epithelial (glioblastoma, GMB); format: cell-based, human
Text: as §1, §2, §3, §4, §5, §6, §7, §8

[6] = tested on: 12O15, epithelial (glioblastoma, GMB); format: cell-based, human
Text: as §1, §2, §3, §4, §5, §6, §7, §8

[7] = tested on: RG6, epithelial (glioblastoma, GMB); format: cell-based, human
Text: as §1, §2, §3, §4, §5, §6, §7, §8

[8] = tested on: GBM27 (GMB-27), epithelial (glioblastoma); format: cell-based, human
Text: as §1, §2, §3, §4, §5, §6, §7, §8

[9] = tested on: RG5, epithelial (glioblastoma, GMB); format: cell-based, human
Text: as §1, §2, §3, §4, §5, §6, §7, §8

tumor cell lines = test: Anti-cancer activity in tumor cell lines (summary statements); format: cell-based
Method: NCI-H524 were seeded at a density of 2500 cells/well in 96 well plates; […]6, 12015, 12089 and GBM-27 were dissociated with Accumax and plate on p96 wells covered with Matrigel. After 24 h, the compounds to be tested were added to calculate the dose/response curve at the starting concentration of 100 μM with serial dilutions (1:1). Controls are the untreated cells. Each experiment was performed in triplicate. Cells were incubated during 72-96 h in incubator under CO2 atmosphere at 37° C. Cell viability was measured by means of Alamar Blue® (Biosource DAL1100) and […], after treatment with Propidium iodide and Hoechst (GE Healthcare), following manufacturer instructions. Data analysis was performed calculating the percentage of cell viability normalized vs. the values of negative control, which was considered equal to 100%. The dose/response curve was fitted through the sigmoidal equation dose-response (variable slope) and the EC50 values were calculated as follow: Y=Bottom+(Top-Bottom)/(1+10^{[(Log EC50-X)*HillSlope]}, where: X is compound concentration (log scale) and Y is the response

| Molecule | EC50 [1] | EC50 [3] | further results |
| --- | --- | --- | --- |
| CC(C)C[C@H](NC(=O)[C@H](Cc1ccccc1)NC(=O)C1(C)CCCC=CCCCC(C)(NC(=O)[C@H](CC(N)=O)NC(=O)[C@H](CCCNC(=N)N)NC(=O)[C@H](CCCNC(=N)N)NC(=O)[C@H](CCC(N)=O)NC(=O)[C@@H](N)CCCNC(=N)N)C(=O)N[C@@H](CC(C)C)C(=O)N[C@@H](CCCNC(=N)N)C(=O)N[C@@H](CO)C(=O)N1)C(=O)N[C@H](C(=O)N[C@@H](CC(C)C)C(=O)N[C@@H](CCCNC(=N)N)C(=O)N[C@@H](CC(=O)O)C(=O)N[C@@H](Cc1c[nH]cn1)C(N)=O)[C@@H](C)O (stereo partly shown) [IDP-NS02] (H-RQRRN[ξαMeNle(6-ylidene)]LRS[ξαMeNle(6-ylidene)]FLTLRDH-NH2; staple 6-10; N-terminus and C-terminus assumed) | > 100 µM | > 100 µM | EC50 [2]: ~5 µM |
| CC[C@H](C)[C@@H]1NC(=O)[C@H](C(C)C)NC(=O)[C@H](C(C)C)NC(=O)C(C)(NC(=O)[C@H](C)NC(=O)[C@H](C)N)CCCCCCC=CCCCC(C)(C(=O)N[C@H](C(=O)N[C@@H](CCC(=O)O)C(=O)N[C@@H](Cc2ccc(O)cc2)C(=O)N[C@H](C(=O)N[C@@H](Cc2c[nH]cn2)C(=O)N[C@@H](CO)C(N)=O)C(C)C)[C@@H](C)O)NC(=O)[C@H](CCCCN)NC(=O)[C@H](CCCCN)NC(=O)[C@H](CC(C)C)NC1=O (stereo partly shown) [IDP-NS10] (H-AA[X1]VVILKK[ξαMeNle(6-ylidene)]TEYVHS-NH2; staple 3-10; N-terminus and C-terminus assumed) | ~7 µM | ~50 µM | EC50 [4]: ~4 µM; EC50 [5]: ~5 µM; EC50 [6]: ~10 µM; EC50 [7]: ~5 µM; EC50 [8]: ~7.5 µM; EC50 [9]: ~7 µM |
| CC(C)C[C@@H]1NC(=O)[C@H](Cc2ccccc2)NC(=O)[C@H](CO)NC(=O)[C@H](CO)NC(=O)C(C)(NC(=O)[C@H](CC(C)C)NC(=O)[C@H](CC(=O)O)NC(=O)[C@H](CC(N)=O)NC(=O)[C@H](CCCNC(=N)N)NC(=O)[C@H](CCCNC(=N)N)NC(=O)[C@H](CCC(N)=O)NC(=O)[C@@H](N)CCCNC(=N)N)CCCCCCC=CCCCC(C)(C(=O)N[C@@H](CC(=O)O)C(=O)N[C@@H](Cc2c[nH]cn2)C(N)=O)NC(=O)[C@H](CC(C)C)NC(=O)[C@H]([C@@H](C)O)NC1=O (stereo partly shown) [IDP-NS16] (H-RQRRNDL[X1]SSFLTL[ξαMeNle(6-ylidene)]DH-NH2; staple 8-15; N-terminus and C-terminus assumed) | ~15 µM | ~10 µM |  |
| CC(C)C[C@H](NC(=O)[C@H](CC(=O)O)NC(=O)[C@H](CC(N)=O)NC(=O)[C@H](CCCNC(=N)N)NC(=O)[C@@H](N)CCCNC(=N)N)C(=O)N[C@@H](CCCNC(=N)N)C(=O)N[C@@H](CO)C(=O)NC1(C)CCCCCCC=CCCCC(C)(C(=O)N[C@H](C(=O)N2CCC[C@H]2C(N)=O)C(C)C)NC(=O)[C@H](CC(=O)O)NC(=O)[C@H](CCCNC(=N)N)NC(=O)[C@H](CC(C)C)NC(=O)[C@H]([C@@H](C)O)NC(=O)[C@H](CC(C)C)NC(=O)[C@H](Cc2ccccc2)NC1=O (stereo partly shown) [Na05] (H-RRNDLRS[X1]FLTLRD[ξαMeNle(6-ylidene)]VP-NH2; staple 8-15; N-terminus and C-terminus assumed) | ~10 µM |  |  |
| AAKVVILKKATEYVHS-NH2 (C-terminus assumed) [IDP-wtLN10, reference compound] | > 100 µM | > 100 µM | inhibiting cancer cell proliferation (in words) (tumor cell lines): not effective |
| RQIKIWFQNRRMKWKKRQRRNDLRSSFLTLRDHVP-NH2 [NLCa02] |  |  | EC50 ([1]; RG1 cell line, 72-96 h incubation): ~5 µM; anti-cancer activity (in words) (tumor cell lines; tumor cell lines): anti-cancer activity |
| RRRRRRRAAKVVILKKATEYVHS-NH2 (C-terminus assumed) [IDP-intwtLN10, reference compound] | > 100 µM | > 100 µM | inhibiting cancer cell proliferation (in words) (tumor cell lines): inactive |
